{
  "source": "ChEMBL document CHEMBL6134827",
  "about": "“The discovery of novel antimicrobial peptides against drug-resistant bacteria based on fragments fusion strategy” (Eur J Med Chem, 2025)",
  "key": {"[1]": {"test": "Nephrotoxicity in female C57BL/6 mouse assessed as tubular dilation at 20 mg/kg, ip administered daily and measured for 5 days by H and E staining based analysis", "type": "toxicity, organism-based", "settings": "in vivo, 120 h, time 5 day"}, "[2]": {"test": "Nephrotoxicity in female C57BL/6 mouse assessed as presence of flocculents in lumen at 20 mg/kg, ip administered daily and measured for 5 days by H and E staining based analysis", "type": "toxicity, organism-based", "settings": "in vivo, 120 h, time 5 day"}, "[3]": {"test": "Nephrotoxicity in female C57BL/6 mouse assessed as increase in BUN level at 15 mg/kg, ip administered daily and measured for 5 days", "type": "toxicity, organism-based", "settings": "in vivo, 120 h, time 5 day"}, "[4]": {"test": "Toxicity in female C57BL/6 mouse assessed as histopathological change in kidney at 20 mg/kg, ip administered daily and measured for 5 days by H and E staining based analysis", "type": "organism-based", "settings": "in vivo, 120 h, time 5 day"}, "Acinetobacter baumannii": {"system": "Acinetobacter baumannii", "test": "Antimicrobial activity against multidrug resistant Acinetobacter baumannii assessed as inhibition of visible microbial growth incubated for 18 hrs by broth microdilution method", "type": "functional"}, "Pseudomonas aeruginosa [5]": {"system": "Pseudomonas aeruginosa", "test": "Antibacterial activity against multidrug resistant Pseudomonas aeruginosa assessed as reduction in bacterial growth at 32 microg/mL measured within 30 min by bactericidal kinetic assay relative to control", "type": "functional", "set-up": "scale not given: the % may be the effect or the level left", "settings": "dose 32 µg/ml, 0.5 h"}, "[6]": {"test": "Hemolytic activity in human red blood cell assessed as hemolysis at 128 microg/ml measured after 1 hrs by microplate reader assay relative to control", "type": "toxicity, cell-based, Erythrocyte", "settings": "red blood cells, at 128 µg/mL, read-out: Activity"}, "[7]": {"test": "Cytotoxicity against human BEAS-2B cells assessed as inhibition of cell growth measured after 24 hrs by CCK-8 assay", "type": "toxicity, cell-based"}, "BEAS-2B": {"system": "BEAS-2B", "test": "Cytotoxicity against human BEAS-2B cells assessed as reduction in cell viability at 2 to 64 microg/mL measured after 24 hrs by CCK-8 assay", "type": "toxicity, cell-based", "settings": "dose 2-64 µg/ml"}, "Pseudomonas aeruginosa [8]": {"system": "Pseudomonas aeruginosa", "test": "Drug resistance, ratio of MIC for multidrug resistant Pseudomonas aeruginosa after 14 passages to MIC for multidrug resistant Pseudomonas aeruginosa after first exposure", "type": "functional"}, "L02": {"system": "L02", "test": "Cytotoxicity against human LO2 cells assessed as reduction in cell viability at 2 to 64 microg/mL measured after 24 hrs by CCK-8 assay", "type": "toxicity, cell-based", "settings": "l02, 24 h, dose 2-64 µg/ml"}, "Escherichia coli [9]": {"system": "Escherichia coli", "test": "Antimicrobial activity against Escherichia coli ATCC 25922 assessed as inhibition of visible microbial growth incubated for 18 hrs by broth microdilution method", "type": "functional"}, "Escherichia coli [10]": {"system": "Escherichia coli", "test": "Antimicrobial activity against multidrug resistant Escherichia coli assessed as inhibition of visible microbial growth incubated for 18 hrs by broth microdilution method", "type": "functional"}, "Staphylococcus aureus [11]": {"system": "Staphylococcus aureus", "test": "Antimicrobial activity against Staphylococcus aureus ATCC 29213 assessed as inhibition of visible microbial growth incubated for 18 hrs by broth microdilution method", "type": "functional"}, "Cell membrane [12]": {"system": "Cell membrane", "test": "Induction of cytoplasmic membrane depolarization in multidrug resistant Pseudomonas aeruginosa assessed as increase in fluorescence intensity measured for 12 min by DISC3-5 dye based fluorescence analysis", "type": "subcellular", "settings": "dose 4-32 µg/ml"}, "Staphylococcus aureus [13]": {"system": "Staphylococcus aureus", "test": "Antimicrobial activity against multidrug resistant Staphylococcus aureus assessed as inhibition of visible microbial growth incubated for 18 hrs by broth microdilution method", "type": "functional"}, "Staphylococcus aureus [14]": {"system": "Staphylococcus aureus", "test": "Drug resistance, ratio of MIC for multidrug resistant Staphylococcus aureus after 4 passages to MIC for multidrug resistant Staphylococcus aureus after first exposure", "type": "functional"}, "Pseudomonas aeruginosa [15]": {"system": "Pseudomonas aeruginosa", "test": "Antimicrobial activity against multidrug resistant Pseudomonas aeruginosa assessed as inhibition of visible microbial growth incubated for 18 hrs by broth microdilution method", "type": "functional"}, "Cell membrane [16]": {"system": "Cell membrane", "test": "Induction of outer cell membrane permeabilization in multidrug resistant Pseudomonas aeruginosa assessed as increase in fluorescence intensity measured for 12 mins by NPN uptake assay", "type": "subcellular", "settings": "dose 4-32 µg/ml"}, "[17]": {"test": "Stability in 25% human plasma assessed as compound remaining measured after 24 hrs by RP-HPLC analysis", "type": "ADME, cell-free", "settings": "25% plasma, read-out: Stability"}, "Staphylococcus aureus [18]": {"system": "Staphylococcus aureus", "test": "Drug resistance, ratio of MIC for Staphylococcus aureus ATCC 29213 after 4 passages to MIC for Staphylococcus aureus ATCC 29213 after first exposure", "type": "functional"}, "Cell membrane [19]": {"system": "Cell membrane", "test": "Induction of outer cell membrane permeabilization in multidrug resistant Pseudomonas aeruginosa assessed as increase in fluorescence intensity at >16 microg/ml measured for 12 mins by NPN uptake assay", "type": "subcellular", "settings": "dose > 16.0 µg/ml"}, "Staphylococcus aureus [20]": {"system": "Staphylococcus aureus", "test": "Antibacterial activity against multidrug resistant Staphylococcus aureus assessed as reduction in bacterial growth at 32 microg/mL measured after 1.5 hrs by bactericidal kinetic assay", "type": "functional, organism-based", "settings": "dose 32.0 µg/ml"}, "Pseudomonas aeruginosa [21]": {"system": "Pseudomonas aeruginosa", "test": "Drug resistance, ratio of MIC for multidrug resistant Pseudomonas aeruginosa after 5 passages to MIC for multidrug resistant Pseudomonas aeruginosa after first exposure", "type": "functional"}, "Staphylococcus aureus [22]": {"system": "Staphylococcus aureus", "test": "Drug resistance, ratio of MIC for Staphylococcus aureus ATCC 29213 after 14 passages to MIC for Staphylococcus aureus ATCC 29213 after first exposure", "type": "functional"}, "Staphylococcus aureus [23]": {"system": "Staphylococcus aureus", "test": "Drug resistance, ratio of MIC for multidrug resistant Staphylococcus aureus after 10 passages to MIC for multidrug resistant Staphylococcus aureus after first exposure", "type": "functional"}, "Bacillus subtilis": {"system": "Bacillus subtilis", "test": "Antibacterial activity against Bacillus subtilis", "type": "functional"}},
  "note": "The source made the active and inactive calls. No cut-off for these calls is given here. Positions of bridges follow the written chain, without caps; N, C: chain ends. Non-standard residues stand in square brackets, D forms with d. Residues, ends and D or L forms follow the SMILES beside them. *: point of attachment. X1 = CC[C@H](C)CCCCC(=O)*; Dab = NCC[C@H](N)C(=O)O",
  "data": [
    {"compound": "CC(C)CCCCC(=O)N[C@@H](CCN)C(=O)N[C@H](C(=O)N[C@@H](CCN)C(=O)N[C@H]1CCNC(=O)[C@H]([C@@H](C)O)NC(=O)[C@H](CCN)NC(=O)[C@H](CCN)NC(=O)[C@H](CC(C)C)NC(=O)[C@@H](Cc2ccccc2)NC(=O)[C@H](CCN)NC1=O)[C@@H](C)O.CC[C@H](C)CCCCC(=O)N[C@@H](CCN)C(=O)N[C@H](C(=O)N[C@@H](CCN)C(=O)N[C@H]1CCNC(=O)[C@H]([C@@H](C)O)NC(=O)[C@H](CCN)NC(=O)[C@H](CCN)NC(=O)[C@H](CC(C)C)NC(=O)[C@@H](Cc2ccccc2)NC(=O)[C@H](CCN)NC1=O)[C@@H](C)O", "note": "(X1-[Dab]T[Dab][Dab][Dab][dF]L[Dab][Dab]T; lactam 4-C)", "values": [
      {"measurement": "Activity", "setting": "[1]", "value": "Toxic"},
      {"measurement": "Activity", "setting": "[2]", "value": "Toxic"},
      {"measurement": "Activity", "setting": "[3]", "value": "Toxic"},
      {"measurement": "Activity", "setting": "[4]", "value": "Non-toxic"}
    ]},
    {"compound": "H-GIGKFLKKAKKFGKAFVKILKK-OH", "values": [
      {"measurement": "MIC", "setting": "Acinetobacter baumannii", "value": 1.6, "unit": "µM"},
      {"measurement": "Activity", "setting": "Pseudomonas aeruginosa [5]", "value": 100, "unit": "%"},
      {"measurement": "hemolysis at 1 h, 128 µg/mL", "setting": "[6]", "value": "< 10", "unit": "%"},
      {"measurement": "CC50 at 24 h", "setting": "[7]", "value": 45.9, "unit": "µg/mL"},
      {"measurement": "Activity", "setting": "BEAS-2B", "value": "Toxic"},
      {"measurement": "Ratio", "setting": "Pseudomonas aeruginosa [8]", "value": 4},
      {"measurement": "Activity", "setting": "L02", "value": "Toxic"},
      {"measurement": "MIC", "setting": "Escherichia coli [9]", "value": 3.2, "unit": "µM"},
      {"measurement": "MIC", "setting": "Escherichia coli [10]", "value": 3.2, "unit": "µM"},
      {"measurement": "MIC", "setting": "Staphylococcus aureus [11]", "value": 12.9, "unit": "µM"},
      {"measurement": "Activity", "setting": "Cell membrane [12]", "value": "Dose-dependent-effect"},
      {"measurement": "MIC", "setting": "Staphylococcus aureus [13]", "value": 12.9, "unit": "µM"},
      {"measurement": "Ratio", "setting": "Staphylococcus aureus [14]", "value": 8},
      {"measurement": "MIC", "setting": "Pseudomonas aeruginosa [15]", "value": 3.2, "unit": "µM"},
      {"measurement": "Activity", "setting": "Cell membrane [16]", "value": "Dose-dependent-effect"},
      {"measurement": "remaining at 24 h", "setting": "[17]", "value": 34, "unit": "%"},
      {"measurement": "Ratio", "setting": "Staphylococcus aureus [18]", "value": 8},
      {"measurement": "Activity", "setting": "Cell membrane [19]", "value": "Active"},
      {"measurement": "Activity", "setting": "Staphylococcus aureus [20]", "value": "Not active; Bacterial Regrowth Observed"}
    ]},
    {"compound": "C[C@H]1COc2c(N3CCN(C)CC3)c(F)cc3c(=O)c(C(=O)O)cn1c23", "note": "[LEVOFLOXACIN ANHYDROUS]", "values": [
      {"measurement": "Ratio", "setting": "Pseudomonas aeruginosa [21]", "value": 16},
      {"measurement": "Ratio", "setting": "Staphylococcus aureus [22]", "value": 512},
      {"measurement": "Ratio", "setting": "Staphylococcus aureus [14]", "value": 4}
    ]},
    {"compound": "CN[C@H](CC(C)C)C(=O)N[C@H]1C(=O)N[C@@H](CC(N)=O)C(=O)N[C@H]2C(=O)N[C@H]3C(=O)N[C@H](C(=O)N[C@H](C(=O)O)c4cc(O)cc(O)c4-c4cc3ccc4O)[C@H](O)c3ccc(c(Cl)c3)Oc3cc2cc(c3O[C@@H]2O[C@H](CO)[C@@H](O)[C@H](O)[C@H]2O[C@H]2C[C@](C)(N)[C@H](O)[C@H](C)O2)Oc2ccc(cc2Cl)[C@H]1O", "note": "[VANCOMYCIN]", "values": [
      {"measurement": "Ratio", "setting": "Staphylococcus aureus [23]", "value": 2},
      {"measurement": "MIC", "setting": "Staphylococcus aureus [11]", "value": 0.7, "unit": "µM"},
      {"measurement": "MIC", "setting": "Staphylococcus aureus [13]", "value": 0.7, "unit": "µM"},
      {"measurement": "Ratio", "setting": "Staphylococcus aureus [18]", "value": 4}
    ]},
    {"compound": "H-GLRKRLRKFFNKIKF-OH", "values": [
      {"measurement": "MIC", "setting": "Acinetobacter baumannii", "value": 16.4, "unit": "µM"},
      {"measurement": "MIC", "setting": "Bacillus subtilis", "value": "> 3", "unit": "µM"},
      {"measurement": "MIC", "setting": "Escherichia coli [9]", "value": 8.2, "unit": "µM"},
      {"measurement": "MIC", "setting": "Escherichia coli [10]", "value": 4.1, "unit": "µM"},
      {"measurement": "MIC", "setting": "Staphylococcus aureus [11]", "value": 32.8, "unit": "µM"},
      {"measurement": "MIC", "setting": "Staphylococcus aureus [13]", "value": 65.7, "unit": "µM"},
      {"measurement": "MIC", "setting": "Pseudomonas aeruginosa [15]", "value": 16.4, "unit": "µM"}
    ]}
  ]
}
